Measured values: PubChem BioAssay AID2060484 (Molecular Pharmacology Branch, DTP, NCI, 2025)

System: SUM149PT spheroids with HUVEC/MSC, viability
Test: Anticancer human tumor SUM149PT cell line growth inhibition [GQUAD];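 further: spheroids exposed to drugs for seven days before readout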;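 on viability, T/C: percent viability relative to DMSO vehicle control taken as 100%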
Conditions: for IC50: curve of first compound; for viability, T/C: stronger effect = lower value
Summary of the method: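 Multi-cell-type spheroids of tumor cells with HUVEC and mesenchymal stem cells, treated with drug combinations. Concentrations descend in half-log steps from near clinical Cmax, or from 10 microM where Cmax is unknown; viability read-out.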

[1] = second compound 0.0316 µM, first compound 0.0316 µM
[2] = second compound 0.0316 µM, first compound 0.1 µM
[3] = second compound 0.0316 µM, first compound 0.316 µM
[4] = second compound 0.0316 µM, first compound 1 µM
[5] = second compound 0.0316 µM, first compound 3.16 µM
[6] = second compound 0.0316 µM, first compound 10 µM
[7] = second compound 0.1 µM, first compound 0.0316 µM
[8] = second compound 0.1 µM, first compound 0.1 µM
[9] = second compound 0.1 µM, first compound 0.316 µM
[10] = second compound 0.1 µM, first compound 1 µM
[11] = second compound 0.1 µM, first compound 3.16 µM
[12] = second compound 0.1 µM, first compound 10 µM
[13] = second compound 0.316 µM, first compound 0.0316 µM
[14] = second compound 0.316 µM, first compound 0.1 µM
[15] = second compound 0.316 µM, first compound 0.316 µM
[16] = second compound 0.316 µM, first compound 1 µM
[17] = second compound 0.316 µM, first compound 3.16 µM
[18] = second compound 0.316 µM, first compound 10 µM
[19] = second compound 1 µM, first compound 0.0316 µM
[20] = second compound 1 µM, first compound 0.1 µM
[21] = second compound 1 µM, first compound 0.316 µM
[22] = second compound 1 µM, first compound 1 µM
[23] = second compound 1 µM, first compound 3.16 µM
[24] = second compound 1 µM, first compound 10 µM
[25] = second compound 3.16 µM, first compound 0.0316 µM
[26] = second compound 3.16 µM, first compound 0.1 µM
[27] = second compound 3.16 µM, first compound 0.316 µM
[28] = second compound 3.16 µM, first compound 1 µM
[29] = second compound 3.16 µM, first compound 3.16 µM
[30] = second compound 3.16 µM, first compound 10 µM
[31] = second compound 10 µM, first compound 0.0316 µM
[32] = second compound 10 µM, first compound 0.1 µM
[33] = second compound 10 µM, first compound 0.316 µM
[34] = second compound 10 µM, first compound 1 µM
[35] = second compound 10 µM, first compound 3.16 µM
[36] = second compound 10 µM, first compound 10 µM

Molecule `C=CCn1c(=O)c2cnc(Nc3ccc(N4CCN(C)CC4)cc3)nc2n1-c1cccc(C(C)(C)O)n1` + CN(C)c1ccc(Nc2c3ccc(NC(=O)CCN4CCCC4)cc3nc3cc(NC(=O)CCN4CCCC4)ccc23)cc1 has an IC50 (second compound 0.0316 µM) of 196 nM, an IC50 (second compound 0.1 µM) of 174 nM and an IC50 (second compound 0.316 µM) of 155 nM. The IC50 (second compound 1 µM) was 102 nM, the IC50 (second compound 3.16 µM) was 121 nM and the IC50 (second compound 10 µM) was 130 nM. The viability, T/C [1] was 93.8%, the viability, T/C [2] was 72.7% and the viability, T/C [3] was 32.3%. The viability, T/C [4] was 19.8%, the viability, T/C [5] was 11.4% and the viability, T/C [6] was 7.42%. The viability, T/C [7] was 92.8%, the viability, T/C [8] was 69.2% and the viability, T/C [9] was 28.1%. It also gave a viability, T/C [10] of 20.1%, a viability, T/C [11] of 9.53% and a viability, T/C [12] of 9.35%. For the same molecule, the viability, T/C [13] was 95.8%, the viability, T/C [14] was 62.1% and the viability, T/C [15] was 30%. The viability, T/C [16] was 16.4%, the viability, T/C [17] was 8.18% and the viability, T/C [18] was 6.73%. The viability, T/C [19] was 78%, the viability, T/C [20] was 50.4% and the viability, T/C [21] was 28.5%. The viability, T/C [22] was 16.4%, the viability, T/C [23] was 9.65% and the viability, T/C [24] was 7.97%. For the same molecule, the viability, T/C [25] was 87.7%, the viability, T/C [26] was 54.1% and the viability, T/C [27] was 29.4%. The viability, T/C [28] was 17.9%, the viability, T/C [29] was 7.8% and the viability, T/C [30] was 7.28%. For the same molecule, the viability, T/C [31] was 89.1%, the viability, T/C [32] was 56.6% and the viability, T/C [33] was 28%. For the same molecule, the viability, T/C [34] was 17.1%, the viability, T/C [35] was 9.36% and the viability, T/C [36] was 8.81%.

`CC1COCCN1c1cc(C2(S(C)(=N)=O)CC2)nc(-c2ccnc3[nH]ccc23)n1` (stereo not drawn) + CN(C)c1ccc(Nc2c3ccc(NC(=O)CCN4CCCC4)cc3nc3cc(NC(=O)CCN4CCCC4)ccc23)cc1 showed an IC50 (second compound 0.0316 µM) of 2650 nM, an IC50 (second compound 0.1 µM) of 2760 nM and an IC50 (second compound 0.316 µM) of 2310 nM. For the same molecule, the IC50 (second compound 1 µM) was 2230 nM, the IC50 (second compound 3.16 µM) was 1900 nM and the IC50 (second compound 10 µM) was 1920 nM. The viability, T/C [1] was 106%, the viability, T/C [2] was 91.5% and the viability, T/C [3] was 97.2%. For the same molecule, the viability, T/C [4] was 80.9%, the viability, T/C [5] was 44.2% and the viability, T/C [6] was 29.4%. For the same molecule, the viability, T/C [7] was 97.8%, the viability, T/C [8] was 103% and the viability, T/C [9] was 81.5%. It also gave a viability, T/C [10] of 89.4%, a viability, T/C [11] of 44.7% and a viability, T/C [12] of 25.2%. It also gave a viability, T/C [13] of 90.3%, a viability, T/C [14] of 90.4% and a viability, T/C [15] of 83.2%. For the same molecule, the viability, T/C [16] was 74.7%, the viability, T/C [17] was 40.4% and the viability, T/C [18] was 29.6%. The viability, T/C [19] was 90.4%, the viability, T/C [20] was 82.7% and the viability, T/C [21] was 77.5%. The viability, T/C [22] was 69.5%, the viability, T/C [23] was 41.1% and the viability, T/C [24] was 22.5%. The viability, T/C [25] was 84.2%, the viability, T/C [26] was 90.7% and the viability, T/C [27] was 86.1%. The viability, T/C [28] was 69.7%, the viability, T/C [29] was 34.3% and the viability, T/C [30] was 23.4%. It also gave a viability, T/C [31] of 95.8%, a viability, T/C [32] of 81.4% and a viability, T/C [33] of 88.6%. The viability, T/C [34] was 67%, the viability, T/C [35] was 36.9% and the viability, T/C [36] was 24.9%.

`O=C(NO)c1cnc(N2CCN(S(=O)(=O)c3ccc4ccccc4c3)CC2)nc1` + Cc1[nH]c2ccc(F)cc2c1-c1nc2c3cccnc3c3ncccc3c2[nH]1 was tested, and the IC50 (second compound 0.0316 µM) was 381 nM, the IC50 (second compound 0.1 µM) was 450 nM and the IC50 (second compound 0.316 µM) was 539 nM. For the same molecule, the IC50 (second compound 1 µM) was 617 nM, the IC50 (second compound 3.16 µM) was 660 nM and the IC50 (second compound 10 µM) was 801 nM. It also gave a viability, T/C [1] of 100%, a viability, T/C [2] of 97.1% and a viability, T/C [3] of 59.4%. It also gave a viability, T/C [4] of 1.37%, a viability, T/C [5] of 0.22% and a viability, T/C [6] of 2.18%. For the same molecule, the viability, T/C [7] was 102%, the viability, T/C [8] was 102% and the viability, T/C [9] was 67.8%. For the same molecule, the viability, T/C [10] was 9.4%, the viability, T/C [11] was 0.18% and the viability, T/C [12] was 0.21%. It also gave a viability, T/C [13] of 104%, a viability, T/C [14] of 101% and a viability, T/C [15] of 78%. The viability, T/C [16] was 17.8%, the viability, T/C [17] was 0.15% and the viability, T/C [18] was 1.25%. For the same molecule, the viability, T/C [19] was 105%, the viability, T/C [20] was 98.1% and the viability, T/C [21] was 78.8%. It also gave a viability, T/C [22] of 30.1%, a viability, T/C [23] of 0.16% and a viability, T/C [24] of 0.2%. The viability, T/C [25] was 107%, the viability, T/C [26] was 101% and the viability, T/C [27] was 74.2%. The viability, T/C [28] was 38.8%, the viability, T/C [29] was 0.2% and the viability, T/C [30] was 0.4%. The viability, T/C [31] was 106%, the viability, T/C [32] was 93.5% and the viability, T/C [33] was 79.4%. It also gave a viability, T/C [34] of 47.4%, a viability, T/C [35] of 0.29% and a viability, T/C [36] of 0.25%.

`CC(C)(O)C1CCC(Nc2ccc3ncc(-c4cccc(C(F)(F)F)c4)n3n2)CC1` (stereo not drawn) + Cc1[nH]c2ccc(F)cc2c1-c1nc2c3cccnc3c3ncccc3c2[nH]1 was tested, and the IC50 (second compound 0.0316 µM) was 5920 nM, the IC50 (second compound 0.1 µM) was > 10000 nM and the IC50 (second compound 0.316 µM) was 3810 nM. For the same molecule, the IC50 (second compound 1 µM) was 7900 nM, the IC50 (second compound 3.16 µM) was 2360 nM and the IC50 (second compound 10 µM) was 1910 nM. For the same molecule, the viability, T/C [1] was 103%, the viability, T/C [2] was 96.5% and the viability, T/C [3] was 80.2%. It also gave a viability, T/C [4] of 63.9%, a viability, T/C [5] of 44.6% and a viability, T/C [6] of 53.3%. The viability, T/C [7] was 90.9%, the viability, T/C [8] was 90.4% and the viability, T/C [9] was 84.2%. It also gave a viability, T/C [10] of 67.4%, a viability, T/C [11] of 51% and a viability, T/C [12] of 55.9%. It also gave a viability, T/C [13] of 105%, a viability, T/C [14] of 97.7% and a viability, T/C [15] of 85.5%. It also gave a viability, T/C [16] of 68.8%, a viability, T/C [17] of 43.3% and a viability, T/C [18] of 51%. It also gave a viability, T/C [19] of 97.4%, a viability, T/C [20] of 96.4% and a viability, T/C [21] of 89.2%. It also gave a viability, T/C [22] of 68%, a viability, T/C [23] of 47.4% and a viability, T/C [24] of 52.9%. For the same molecule, the viability, T/C [25] was 95.5%, the viability, T/C [26] was 81.5% and the viability, T/C [27] was 85.4%. For the same molecule, the viability, T/C [28] was 70%, the viability, T/C [29] was 40% and the viability, T/C [30] was 46.3%. The viability, T/C [31] was 99%, the viability, T/C [32] was 87.5% and the viability, T/C [33] was 79.7%. It also gave a viability, T/C [34] of 59.9%, a viability, T/C [35] of 38.5% and a viability, T/C [36] of 43.1%.
